In patent US6465432B1, “Isolated antioxidant peptides form casein and methods for preparing, isolating, and identifying antioxidant peptides” (Kraft Food Holdings, Inc., priority 2000, dated 2002):
No end group written: not given here.

What was measured:
Format in all cases: biochemical
[1] = ABTS total antioxidative activity assay (ABTS, metmyoglobin, H2O2; absorbance at 734 nm)
Experimental: (§1) Phase I fractions of the protein hydrolysates generated with various proteases in Example 1 were analyzed for their ability to prevent accumulation of free radicals derived from 2,2′-azino-bis(3-ethylbenzthiazoline-6-sulfonic acid) (ABTS). Both total antioxidative activity and total reducing power of protein hydrolysate using ABTS and preformed ABTS radical, respectively, were used. These two model systems allowed mechanistic information of antioxidative activity of protein hydrolysates to be obtained. Furthermore, the analysis provided specific data related to whether the protein hydrolysates have the capacity of scavenging radicals in an oxidation system.
Total antioxidant assays using ABTS were performed according to Cox et al., “Biological assays for cellular transformation,” Methods in Enzymology 238:277 (1994); and Plumb et al., “Are Whole Extracts and Purified Glucosinolates from Cruciferous Vegetables Antioxidants?,” Free Rad. Res. 25:75 (1996). The assay was performed in a total volume of 1.2 ml. Twenty-five microliters of sample (Phase I hydrolysate fractions as described in Example 1 or Trolox standard (2.5 mM) (Aldrich, Milwaukee, Wis.) were combined with 100 μl of ABTS solution (2.5 mM ABTS (Sigma, St. Louis, Mo.) in PBS), 180 μl of MetMb solution (50 μM Metmyoglobin made from mixing 1:1 v/v of 100 µM myoglobin (Sigma, St. Louis, Mo.) and 100 μM Metmyoglobin (Sigma, St. Louis, Mo.); and 100 μM potassium ferricyanide (Aldrich, Milwaukee, Wis.) in PBS), and 775 μl PBS. One-hundred and 20 microliters of 10 mM H2O2 were then added. The mixture was agitated and absorbance was read at 734 nm over a period of 10-15 min.

[2] = Total reducing power assay using ABTS radical; conditions: for reducing power in terms of scavenging pre-formed ABTS radical: synthesized peptide 0.0832 mM, Trolox 0.0208 mM, n=5; for antioxidative activity in the ABTS radical assay: HPLC-isolated fractions of Phase I, concentrations not adjusted after HPLC
Experimental: as §1
Total reducing power assays using ABTS radical were performed according to the methods of Pellegrini et al., “Screening of Dietary Carotenoids and Carotenoid-Rich Fruit Extracts for Antioxidant Activities Applying 2,2 ′-Azinobis(3-ethylenebenzothiazoline-6-sulfonic acid Radical Cation Decolorization Assay,” Methods in Enzymology 299:379 (1999). This assay measures antioxidant capability as reducing power in terms of scavenging pre-formed ABTS radical. Equal volumes of lOmM PBS and sample (Phase I hydrolysate fractions as described in Example 1) were combined and 2.5 times the total volume (i.e., PBS and sample combined) of a working solution of ABTS radical was added. The mixture was agitated and absorbance at 734 nm was measured after 10 minutes of incubation at […]. Acetone or PBS was used as a blank where appropriate. The working solution of ABTS radical was prepared by adding 1 volume of a ABTS radical stock solution to 80 volumes of 10 mM PBS (pH 7.0) and adding, if necessary, PBS or ABTS stock solution to adjust the absorbance to about 0.83 at 734 nm. The ABTS radical stock solution contained 2.5 mM K2S2O8 and 6.9 mM ABTS.

[3] = Hydroxyl radical (Fenton) assay; conditions: synthesized peptide 0.2083 mM, Trolox 0.0521 mM; n=5; FIG. 22
Experimental: An analysis was performed to evaluate the ability of the peptide samples (Phase I and II hydrolysate fractions as described in Example 1) to quench the hydroxyl radical. The hydroxyl radical is an exceptionally active agent that reacts nonselectively with all organic constituents of food. Consequently, it can directly initiate lipid oxidation in food systems. The capacity to quench hydroxyl radicals, therefore, should theoretically be a very important characteristics for food antioxidants.
The hydroxyl radical (Fenton) assay was performed according to the methods of Lee, B. J., et al., “Antioxidant effects of L-carnosine on liposomes and beef homogenates,” J. Food Sci. 62:931 (1997). For this assay, 945 μl buffer (0.1 M phosphate buffer, pH 7.4), 60 μl EDTA-FeCl3 solution (92 mM EDTA, 26 mM FeCI3 in 0.1 M phosphate buffer pH 7.4), 25 μl sample (Phase I and II hydrolysate fractions as described in Example 1 or Trolox standard (2.5 mM)), and 120 μl of 1 mM H2O2 were combined. To this solution, 50 μl of a deoxyribose-ascorbic acid solution (67 mM deoxyribose, 4.8 mM ascorbic acid, in 01 M phosphate buffer pH 7.4) was added, and the solution was mixed and incubateded at 37° C. for 1 hr. […] Absorbance of the solution is then read at 532 nm after cooling to room temperature. […]

[4] = synthesized peptide 0.0832 mM, Trolox 0.0208 mM, n=5

Compound	total antioxidative activity [1, 4]	reducing power in terms of scavenging pre-formed ABTS radical [2]	antioxidative activity in the ABTS radical assay [2]	other results
Cc1c(C)c2c(c(C)c1O)CCC(C)(C(=O)O)O2 (centres unmarked) [Trolox, reference compound]				total antioxidative activity ([1]; Phase I of milk protein hydrolysates, FIG. 2, PBS negative control, Trolox positive control): typical delay of initiation or lag phase of the oxidation system; time until after which oxidation was virtually totally suppressed ([1]; Trolox 0.0208 mM): > 2 h
Gln-Phe-Tyr [linear QFY]	have antioxidative activity	significantly (p<0.05) scavenged pre-formed ABTS radical		capacity to quench hydroxyl radicals [3]: possess the capacity to quench hydroxyl radicals
RYLGYLE (Bovine) [Arg-Tyr-Leu-Gly-Tyr-Leu-Glu, fragment of alpha S1-casein (amino acid residues 105˜111) from bovine milk]		statistically significant when compared to PBS controls	strong antioxidative activity	
Gln-Phe-Tyr [cyclic QFY] (not fully specified (bridges); printed as Gln-Phe-Tyr [cyclic QFY]; also: cyclic, kind not given here) [cyclic tripeptide, fragment of alpha S1-casein (amino acid residues 167-169) from bovine milk]	slightly stronger antioxidative activity	significantly (p<0.05) scavenged pre-formed ABTS radical	strong antioxidative activity	capacity to quench hydroxyl radicals [3]: slightly stronger capacity to quench hydroxyl radicals
LAYFYPE (Bovine) [Leu-Ala-Tyr-Phe-Tyr-Pro-Glu]			strong antioxidative activity	
AYFYPE [fragment of alpha S1-casein (amino acid residue 158˜163) from bovine milk]	significant (p<0.05) when compared to PBS controls	strong antioxidative activity	strong antioxidative activity	time within which oxidation reached maximal levels ([1]; synthesized peptide 0.0832 mM): ≤ 1.5 h
YLGYLE [fragment of alpha S1-casein (amino acid residues 106˜111) from bovine milk]			strong antioxidative activity	
